Measured values: patent US20140135220A1, “Methods for post emergent weed control with Pyroxasulfone and Lactofen” (Valent U.S.A., Corporation, priority 2012, published 2014)

How the values were obtained:
Palmer Amaranth [1] = assay: Example 1: post emergence treatments on field plots with Palmer Amaranth; assay type: in vivo; conditions: COC 1% v/v
Description: In order to determine the efficacy of combinations of pyroxasulfone and lactofen, numerous treatments were applied to plots in an area with abundant Palmer Amaranth growth. Treatments were applied to Palmer that were between 1 and 2 inches tall with a water volume of 20 gallons per acre applied at 35 PSI with a ground speed of 3 MPH. Treatments were repeated 10 days after the first application on another set of plots with Palmer 3 to 12 inches tall with a water volume of 20 gallons per acre applied at 35 PSI with a ground speed of 3 MPH.
The number of living Palmer Amaranth plants was evaluated at 7, 18, 24, and 38 days following the first treatment and 8, 14, and 28 days following the second treatment. Effect of Pyroxasulfone and Lactofen Treatments on Palmer Amaranth.”

Palmer Amaranth [2] = assay: Example 2: post emergence treatments on soybean plots, control of Palmer Amaranth; assay type: in vivo; design: scale not given here
Description: (§1) In order to determine the efficacy of combinations of pyroxasulfone and lactofen, numerous treatments were applied to plots in an area with abundant Palmer Amaranth and Ivyleaf Morning Glory growth. Soybeans were planted approximately 22 days before treatment. Treatments were applied with a backpack sprayer with a size 6 nozzle at a pace of 3 miles per hour during dry conditions. Each treatment was done in triplicate. Treatments were applied with a water volume of 20 gallons per acre applied at 40 PSI with a ground speed of 3 MPH. At the time of treatment, Palmer Amaranth plants were approximately 2 to 6 inches tall, and Ivyleaf Morning Glory was approximately 3 to 6 inches tall. Effect of Pyroxasulfone and Lactofen Treatments on Palmer Amaranth” and “Table 3. Effect of Pyroxasulfone and Lactofen Treatments on Ivyleaf Morning Glory.”

Ivyleaf Morning Glory = assay: Example 2: post emergence treatments on soybean plots, control of Ivyleaf Morning Glory; assay type: in vivo; design: scale not given here
Description: as §1

Soybeans = assay: Example 2: phytotoxicity of the treatments on soybeans; conditions: soybean, in vivo, 28 days after treatment
Description: as §1
Applicants also evaluated the phototoxicity of the treatments on soybeans. […] Effect of Pyroxasulfone and Lactofen Treatments on Soybeans,” there were no phytotoxic effects 28 days following treatments.

weeds = conditions: as a post emergence treatment, applied alone; previous studies; cited from earlier work
[3] = plot 2, Pyroxasulfone 0.213 lb ai/a

SMILES: CCOC(=O)C(C)OC(=O)c1cc(Oc2ccc(C(F)(F)F)cc2Cl)ccc1[N+](=O)[O-] (racemic) [Lactofen, ethyl O-[5-(2-chloro-α,α,α-trifluoro-p-tolyloxy)-2-nitrobenzoyl]-DL-lactate]
- Palmer Amaranth (% Control) 7 DAT (Palmer Amaranth [1]; plot 3, Lactofen 12.5 fl oz/a): 66.0%
- Palmer Amaranth (% Control) 8/18 DAT (Palmer Amaranth [1]; plot 3, Lactofen 12.5 fl oz/a): 97.7%
- Palmer Amaranth (% Control) 14/24 DAT (Palmer Amaranth [1]; plot 3, Lactofen 12.5 fl oz/a): 97.7%
- Palmer Amaranth (% Control) 28/38 DAT (Palmer Amaranth [1]; plot 3, Lactofen 12.5 fl oz/a): 99.0%
- Effect on Palmer Amaranth 6 DAT (Palmer Amaranth [2]; plot 8, Lactofen 8 fl oz/a): 86.7
- Effect on Palmer Amaranth 14 DAT (Palmer Amaranth [2]; plot 8, Lactofen 8 fl oz/a): 65.0
- Effect on Palmer Amaranth 28 DAT (Palmer Amaranth [2]; plot 8, Lactofen 8 fl oz/a): 46.7
- Effect on Palmer Amaranth 6 DAT (Palmer Amaranth [2]; plot 9, Lactofen 10.0 fl oz/a): 84.7
- Effect on Palmer Amaranth 14 DAT (Palmer Amaranth [2]; plot 9, Lactofen 10.0 fl oz/a): 68.3
- Effect on Palmer Amaranth 28 DAT (Palmer Amaranth [2]; plot 9, Lactofen 10.0 fl oz/a): 46.7
- Effect on Palmer Amaranth 6 DAT (Palmer Amaranth [2]; plot 10, Lactofen 12.5 fl oz/a): 85.0
- Effect on Palmer Amaranth 14 DAT (Palmer Amaranth [2]; plot 10, Lactofen 12.5 fl oz/a): 71.7
- Effect on Palmer Amaranth 28 DAT (Palmer Amaranth [2]; plot 10, Lactofen 12.5 fl oz/a): 43.3
- Effect on Ivyleaf Morning Glory 6 DAT (Ivyleaf Morning Glory; plot 8, Lactofen 8 fl oz/a): 61.7
- Effect on Ivyleaf Morning Glory 14 DAT (Ivyleaf Morning Glory; plot 8, Lactofen 8 fl oz/a): 48.3
- Effect on Ivyleaf Morning Glory 28 DAT (Ivyleaf Morning Glory; plot 8, Lactofen 8 fl oz/a): 20.0
- Effect on Ivyleaf Morning Glory 6 DAT (Ivyleaf Morning Glory; plot 9, Lactofen 10.0 fl oz/a): 71.7
- Effect on Ivyleaf Morning Glory 14 DAT (Ivyleaf Morning Glory; plot 9, Lactofen 10.0 fl oz/a): 58.3
- Effect on Ivyleaf Morning Glory 28 DAT (Ivyleaf Morning Glory; plot 9, Lactofen 10.0 fl oz/a): 20.0
- Effect on Ivyleaf Morning Glory 6 DAT (Ivyleaf Morning Glory; plot 10, Lactofen 12.5 fl oz/a): 68.3
- Effect on Ivyleaf Morning Glory 14 DAT (Ivyleaf Morning Glory; plot 10, Lactofen 12.5 fl oz/a): 56.7
- Effect on Ivyleaf Morning Glory 28 DAT (Ivyleaf Morning Glory; plot 10, Lactofen 12.5 fl oz/a): 23.3
- Effect on Soybeans (phytotoxicity) 28 DAT (Soybeans): 0.0

SMILES: Cn1nc(C(F)(F)F)c(CS(=O)(=O)C2=NOC(C)(C)C2)c1OC(F)F [Pyroxasulfone, 5-(difluoromethoxy)-1-methyl-3-(trifluoromethyl)pyrazol-4-ylmethyl 4,5-dihydro-5,5-dimethyl-1,2-oxazol-3-yl sulfone]
- Palmer Amaranth (% Control) 7 DAT (Palmer Amaranth [1]; [3]): 66.9%
- Palmer Amaranth (% Control) 8/18 DAT (Palmer Amaranth [1]; [3]): 85.0%
- Palmer Amaranth (% Control) 14/24 DAT (Palmer Amaranth [1]; [3]): 45.0%
- Palmer Amaranth (% Control) 28/38 DAT (Palmer Amaranth [1]; [3]): 61.7%
- post emergence activity (weeds): poor activity
